The values that follow come from patent US12187712B2, “Cardiac sarcomere inhibitors” (Cytokinetics, Inc., priority 2018, dated 2025).

For the assay, the target named is T1, bovine cardiac myofibrils (Bos taurus, UniProt Q9BE39).
T1 construct: full-length cardiac myosin in the context of the native sarcomere, skinned myofibril assays were performed; from tissue; host or cells: bovine cardiac left ventricular tissue, detergent-skinned (Triton X-100) myofibrils
The assay can be described thus: Skinned myofibril ATPase assay (PK/LDH-coupled), CDMF75. The format is biochemical. The conditions noted are these: inhibition of steady-state ATPase activity of bovine cardiac myofibrils at 75% Ca2+ activation (pCa75). The protocol:
To evaluate the effect of compounds on the ATPase activity of full-length cardiac myosin in the context of the native sarcomere, skinned myofibril assays were performed. Bovine cardiac myofibrils were obtained by homogenizing bovine cardiac left ventricular tissue in the presence of a detergent such as triton X-100. Such treatment removes membranes and a majority of the soluble cytoplasmic proteins but leaves intact the cardiac sarcomeric acto-myosin apparatus. Myofibril preparations retain the ability to hydrolyze ATP in an Ca^2+ regulated manner. ATPase activities of such myofibril preparations in the presence and absence of compounds were assayed at Ca^2+ concentrations activating to a defined fraction of the maximal rate (i.e., 25%, 75%). Small molecule agents were assessed for their ability to inhibit the steady-state ATPase activity of bovine cardiac myofibrils using pyruvate kinase and lactate dehydrogenase (PK/LDH)-coupled enzyme system. This assay regenerates myosin-produced ADP into ATP by oxidizing NADH, producing an absorbance change at 340 nm. Prior to testing small molecule agents, the bovine cardiac myofibrils were assessed for their calcium responsiveness and the calcium concentration that achieves either a 50% (pCa50) or 75% (pCa75) activation of the myofibril system was chosen as the final condition for assessing the inhibitory activity of the small molecule agents. All enzymatic activity was measured in a buffered solution containing 12 mM PIPES (piperazine-N,N′-bis(2-ethanesulfonic acid), 2 mM magnesium chloride at pH 6.8 (PM 12 buffer). Final assay conditions were 1 mg/mL of bovine cardiac myofibrils, 4 U/mL pyruvate kinase, 6 U/mL lactate dehydrogenase, 50 μM ATP, 0.1 mg/mL BSA (bovine serum albumin), 10 ppm antifoam, 1 mM DTT, 0.5 mM NADH, 1.5 mM PEP, 0.6 mM EGTA, and an amount of CaCl2 sufficient to achieve either 50% or 75% activation of the myofibril ATPase activity. Results for compounds tested are provided in Table A. Compounds tested were prepared in accordance with the synthetic procedures described herein.

Where only a bound is given, the exact number is not on record here.

T1 sequence (Q9BE39 whole entry): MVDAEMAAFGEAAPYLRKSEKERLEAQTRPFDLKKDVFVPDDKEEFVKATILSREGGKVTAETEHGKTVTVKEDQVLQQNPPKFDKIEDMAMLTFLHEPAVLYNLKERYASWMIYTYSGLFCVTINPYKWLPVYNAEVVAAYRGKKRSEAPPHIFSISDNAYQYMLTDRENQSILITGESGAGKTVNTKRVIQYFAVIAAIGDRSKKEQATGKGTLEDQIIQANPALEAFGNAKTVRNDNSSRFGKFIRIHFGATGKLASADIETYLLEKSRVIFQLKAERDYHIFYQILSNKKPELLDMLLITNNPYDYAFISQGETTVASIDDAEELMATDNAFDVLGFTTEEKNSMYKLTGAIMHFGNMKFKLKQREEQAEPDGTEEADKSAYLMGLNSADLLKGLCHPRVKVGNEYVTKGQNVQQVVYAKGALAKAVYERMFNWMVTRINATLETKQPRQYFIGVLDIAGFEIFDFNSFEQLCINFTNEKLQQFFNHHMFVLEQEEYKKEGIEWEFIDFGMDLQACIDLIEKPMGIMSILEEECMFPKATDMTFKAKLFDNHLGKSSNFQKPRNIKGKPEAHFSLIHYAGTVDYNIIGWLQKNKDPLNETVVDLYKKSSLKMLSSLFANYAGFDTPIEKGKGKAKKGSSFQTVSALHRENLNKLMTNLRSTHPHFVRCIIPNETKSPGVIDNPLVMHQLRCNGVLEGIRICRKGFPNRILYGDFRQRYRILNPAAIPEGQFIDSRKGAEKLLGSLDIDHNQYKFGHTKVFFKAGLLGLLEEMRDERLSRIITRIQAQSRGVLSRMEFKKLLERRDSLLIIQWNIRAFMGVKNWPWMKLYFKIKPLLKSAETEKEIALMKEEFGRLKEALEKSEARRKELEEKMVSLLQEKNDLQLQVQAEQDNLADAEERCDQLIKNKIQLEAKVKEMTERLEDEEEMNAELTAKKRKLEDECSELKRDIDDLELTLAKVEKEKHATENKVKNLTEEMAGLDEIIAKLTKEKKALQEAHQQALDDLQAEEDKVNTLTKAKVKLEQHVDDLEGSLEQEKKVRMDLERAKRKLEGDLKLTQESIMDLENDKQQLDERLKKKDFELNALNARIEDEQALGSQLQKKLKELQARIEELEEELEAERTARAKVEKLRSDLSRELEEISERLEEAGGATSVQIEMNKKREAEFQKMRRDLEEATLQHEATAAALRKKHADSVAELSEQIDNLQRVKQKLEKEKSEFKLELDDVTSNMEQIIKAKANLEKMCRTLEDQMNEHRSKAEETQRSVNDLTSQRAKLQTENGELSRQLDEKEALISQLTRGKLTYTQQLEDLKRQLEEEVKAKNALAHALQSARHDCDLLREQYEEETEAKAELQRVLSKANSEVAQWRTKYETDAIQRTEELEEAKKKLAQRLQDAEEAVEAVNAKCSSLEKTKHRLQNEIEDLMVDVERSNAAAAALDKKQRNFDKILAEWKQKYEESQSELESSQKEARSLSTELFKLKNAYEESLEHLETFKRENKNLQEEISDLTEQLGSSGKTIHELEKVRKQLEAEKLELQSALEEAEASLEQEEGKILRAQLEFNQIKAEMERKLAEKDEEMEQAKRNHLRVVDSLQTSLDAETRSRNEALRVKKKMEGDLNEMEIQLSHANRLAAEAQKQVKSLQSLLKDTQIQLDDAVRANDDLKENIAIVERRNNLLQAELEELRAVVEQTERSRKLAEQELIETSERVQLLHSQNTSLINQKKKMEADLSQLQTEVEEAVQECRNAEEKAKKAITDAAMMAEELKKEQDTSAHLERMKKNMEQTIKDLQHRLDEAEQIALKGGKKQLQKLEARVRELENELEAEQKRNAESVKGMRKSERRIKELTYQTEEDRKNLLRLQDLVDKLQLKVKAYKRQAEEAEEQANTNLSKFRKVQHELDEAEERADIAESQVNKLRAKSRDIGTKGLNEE
T1 sequence (P85100 whole entry partner): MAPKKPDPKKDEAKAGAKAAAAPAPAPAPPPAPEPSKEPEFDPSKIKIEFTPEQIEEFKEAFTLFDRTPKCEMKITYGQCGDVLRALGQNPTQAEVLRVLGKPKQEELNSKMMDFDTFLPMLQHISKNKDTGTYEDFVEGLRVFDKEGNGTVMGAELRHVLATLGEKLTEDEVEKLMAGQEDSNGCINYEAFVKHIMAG
T1 sequence (Q3SZE5 whole entry partner): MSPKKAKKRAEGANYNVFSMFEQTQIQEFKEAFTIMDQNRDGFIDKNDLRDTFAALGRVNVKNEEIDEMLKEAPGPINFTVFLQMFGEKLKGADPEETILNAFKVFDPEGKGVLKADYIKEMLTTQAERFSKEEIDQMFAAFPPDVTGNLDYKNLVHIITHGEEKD

Turning to `C[C@@H](Nc1cnccn1)c1ccc(-c2noc(-c3ccccc3)n2)cc1` [Compound 37, (R)-N-(1-(4-(5-phenyl-1,2,4-oxadiazol-3-yl)phenyl)ethyl)pyrazin-2-amine], the “CDMF75 IC15” value came out at 1.3 µM and the IC50 came out at 5.6 µM.

For `Cc1cc(-c2nc(-c3ccc([C@@H](C)Nc4cnccn4)cc3)no2)on1` [Compound 38, (R)-N-(1-(4-(5-(3-methylisoxazol-5-yl)-1,2,4-oxadiazol-3-yl)phenyl)ethyl)pyrazin-2-amine], the “CDMF75 IC15” value is 3.0 µM and the concentration for half-maximal inhibition (IC50) was determined as 19.1 µM.

Take `C[C@@H](Nc1cnccn1)c1ccc(-c2noc(-c3ccco3)n2)cc1` [Compound 39, (R)-N-(1-(4-(5-(furan-2-yl)-1,2,4-oxadiazol-3-yl)phenyl)ethyl)pyrazin-2-amine]: the “CDMF75 IC15” value turned out to be 0.2 µM and the IC50 was 0.9 µM.

As for `C[C@@H](Nc1cnccn1)c1ccc(-c2noc(-c3cccs3)n2)cc1` [Compound 40, (R)-N-(1-(4-(5-(thiophen-2-yl)-1,2,4-oxadiazol-3-yl)phenyl)ethyl)pyrazin-2-amine], the “CDMF75 IC15” value worked out at 0.3 µM and the midpoint of inhibition, the IC50, lay at 1.1 µM.

In the case of `Cc1nc(-c2ccc(CNc3cnccn3)cc2F)no1` [Compound 41, N-(3-fluoro-4-(5-methyl-1,2,4-oxadiazol-3-yl)benzyl)pyrazin-2-amine], the “CDMF75 IC15” value worked out at 0.7 µM and the IC50 is 3.9 µM.

Take `Fc1cc(CNc2cnccn2)ccc1-c1noc(C(F)(F)F)n1` [Compound 42, N-(3-fluoro-4-(5-(trifluoromethyl)-1,2,4-oxadiazol-3-yl)benzyl)pyrazin-2-amine]: the “CDMF75 IC15” value came to 0.8 µM and the midpoint of inhibition, the IC50, lay at 4.8 µM.

For the molecule `C[C@@H](Nc1cnccn1)c1ccc(-c2noc(-c3ccsc3)n2)cc1` [Compound 43, (R)-N-(1-(4-(5-(thiophen-3-yl)-1,2,4-oxadiazol-3-yl)phenyl)ethyl)pyrazin-2-amine], the “CDMF75 IC15” value is 0.4 µM and the IC50 was found to be 1.7 µM.

For the molecule `Cc1nc(-c2ccc(CNc3ccnc(Cl)c3)cc2)no1` [Compound 44, 2-chloro-N-(4-(5-methyl-1,2,4-oxadiazol-3-yl)benzyl)pyridin-4-amine], the “CDMF75 IC15” value was determined as 2.2 µM and the IC50 was 10.9 µM.

On to `Fc1cc(-c2noc(C(F)(F)F)n2)ccc1CNc1cnccn1` [Compound 45, N-(2-fluoro-4-(5-(trifluoromethyl)-1,2,4-oxadiazol-3-yl)benzyl)pyrazin-2-amine], for which the “CDMF75 IC15” value is 0.9 µM and inhibition was half-maximal at 4 µM (IC50).

In the case of `Cc1nc(-c2ccc(CNc3cnccn3)c(F)c2)no1` [Compound 46, N-(2-fluoro-4-(5-methyl-1,2,4-oxadiazol-3-yl)benzyl)pyrazin-2-amine], the “CDMF75 IC15” value was 0.4 µM and the IC50 worked out at 2.2 µM.

Turning to `Fc1cc(-c2noc(C3CC3)n2)ccc1CNc1cnccn1` [Compound 47, N-(4-(5-cyclopropyl-1,2,4-oxadiazol-3-yl)-2-fluorobenzyl)pyrazin-2-amine], the “CDMF75 IC15” value worked out at 0.3 µM and inhibition was half-maximal at 1.7 µM (IC50).

Take `Cc1cnc(-c2ccc(CNc3cnccn3)cc2)s1` [Compound 48, N-[[4-(5-methyl-1,3-thiazol-2-yl)phenyl]methyl]pyrazin-2-amine]: the “CDMF75 IC15” value is 4.0 µM and the IC50 was found to be 19 µM.

As to `Cc1cnc(-c2ccc(CNc3cnccn3)cc2)o1` [Compound 49, N-[[4-(5-methyl-1,3-oxazol-2-yl)phenyl]methyl]pyrazin-2-amine], the “CDMF75 IC15” value was determined as 0.3 µM and the IC50 is 28.6 µM.

As for `Cc1nc(-c2ccc(CNC(=O)c3ccccc3)cc2)no1` [Compound 50, N-(4-(5-methyl-1,2,4-oxadiazol-3-yl)benzyl)benzamide], the “CDMF75 IC15” value was found to be 3.4 µM and the IC50 worked out at 15.1 µM.

For the molecule `Cc1onc(-c2ccc(CNc3cnccn3)cc2)c1I` [Compound 51, N-(4-(4-iodo-5-methylisoxazol-3-yl)benzyl)pyrazin-2-amine], the “CDMF75 IC15” value came out at 0.2 µM and inhibition was half-maximal at 0.9 µM (IC50).

In the case of `Cc1cc(-c2ccc(CNc3cnccn3)cc2)on1` [Compound 53, N-(4-(3-methylisoxazol-5-yl)benzyl)pyrazin-2-amine], the “CDMF75 IC15” value was 2.1 µM and inhibition was half-maximal at 9.4 µM (IC50).

`COC(=O)NCc1ccc(-c2noc(C)n2)cc1` [Compound 54, methyl (4-(5-methyl-1,2,4-oxadiazol-3-yl)benzyl)carbamate]: the “CDMF75 IC15” value came out at 6.0 µM and the IC50 is 25.8 µM.

Take `Cc1nc(-c2ccc3c(c2)CCC3Nc2cnccn2)no1` (stereo not shown) [Compound 55, N-[5-(5-methyl-1,2,4-oxadiazol-3-yl)-2,3-dihydro-1H-inden-1-yl]pyrazin-2-amine]: the “CDMF75 IC15” value was found to be 0.4 µM and the IC50 amounted to 1.3 µM.

For the molecule `Cc1nc(-c2ccc(CNC(=O)Nc3ccccc3)cc2)no1` [Compound 56, 3-[[4-(5-methyl-1,2,4-oxadiazol-3-yl)phenyl]methyl]-1-phenylurea], the “CDMF75 IC15” value was found to be 1.2 µM and the midpoint of inhibition, the IC50, lay at 4.7 µM.

Take `Cc1nc(-c2ccc(CNC(=O)OCc3ccccc3)cc2)no1` [Compound 57, benzyl (4-(5-methyl-1,2,4-oxadiazol-3-yl)benzyl)carbamate]: the “CDMF75 IC15” value worked out at 3.1 µM and the IC50 was 19.3 µM.

On to `Cc1nc(-c2ccc(CNC(=O)Oc3ccccc3)cc2)no1` [Compound 58, phenyl (4-(5-methyl-1,2,4-oxadiazol-3-yl)benzyl)carbamate], for which the “CDMF75 IC15” value was found to be 2.3 µM and the IC50 is 11.4 µM.

Consider `Cc1nc(-c2ccc3c(c2)CCCC3Nc2cnccn2)no1` (stereo not shown) [Compound 59, N-(6-(5-methyl-1,2,4-oxadiazol-3-yl)-1,2,3,4-tetrahydronaphthalen-1-yl)pyrazin-2-amine], for which the “CDMF75 IC15” value was determined as 0.7 µM and inhibition was half-maximal at 2.2 µM (IC50).

For the molecule `Cc1nc(-c2ccc(CNC(=O)c3ccnc(N)c3)cc2)no1` [Compound 60, 2-amino-N-[[4-(5-methyl-1,2,4-oxadiazol-3-yl)phenyl]methyl]pyridine-4-carboxamide], the “CDMF75 IC15” value came to 7.7 µM and half-maximal inhibition (IC50) required 30.8 µM.

For `Cc1cc(-c2ccc(CNc3cccc(=O)[nH]3)cc2)no1` [Compound 61, 6-([[4-(5-methyl-1,2-oxazol-3-yl)phenyl]methyl]amino)-1,2-dihydropyridin-2-one], the “CDMF75 IC15” value came out at 2.4 µM and 10.2 µM corresponded to half-maximal inhibition (IC50).

For `Cc1cc(-c2ccc(CNc3cc[nH]n3)cc2)no1` [Compound 62, N-(4-(5-methylisoxazol-3-yl)benzyl)-1H-pyrazol-3-amine], the “CDMF75 IC15” value worked out at 5.0 µM and half-maximal inhibition (IC50) required 23 µM.

As to `Cc1nc(-c2ccc(CNC(=O)c3ccncc3O)cc2)no1` [Compound 63, 3-hydroxy-N-(4-(5-methyl-1,2,4-oxadiazol-3-yl)benzyl)isonicotinamide], the IC50 was greater than 39.2 µM.

Turning to `Cc1cc(-c2ccc(CNc3ccn(C)n3)cc2)no1` [Compound 64, 1-methyl-N-(4-(5-methylisoxazol-3-yl)benzyl)-1H-pyrazol-3-amine], the “CDMF75 IC15” value is 7.7 µM and the IC50 is greater than 39.2 µM.

Consider `Cc1cc(-c2ccc(CNc3cc(=O)[nH]cn3)cc2)no1` [Compound 65, 6-((4-(5-methylisoxazol-3-yl)benzyl)amino)pyrimidin-4(3H)-one], for which the “CDMF75 IC15” value was found to be 7.6 µM and the IC50 was greater than 39.2 µM.
